Columns and labels:
Type in all cases: in vivo
[1] = test system: cocklebur (Xanthium strumarium); assay: Test C postemergence
Excerpt: (§1) Seeds of plant species selected from bermudagrass (Cynodon dactylon), Surinam grass (Brachiaria decumbens), cocklebur (Xanthium strumarium), corn (Zea mays), crabgrass (Digitaria sanguinalis), woolly cupgrass (Eriochloa villosa), giant foxtail (Setaria faberii), goosegrass (Eleusine indica), johnsongrass (Sorghum halepense), kochia (Kochia scoparia), lambsquarters (Chenopodium album), morningglory (Ipomoea hederacea), yellow nutsedge (Cyperus esculentus), pigweed (Amaranthus retroflexus), common ragweed (Ambrosia elatior), soybean (Glycine max) and velvetleaf (Abutilon theophrasti) were planted and treated preemergence with test chemicals formulated in a non-phytotoxic solvent mixture which included a surfactant.
(§2) At the same time, plants selected from these crop and weed species and also winter barley (Hordeum vulgare), blackgrass (Alopecurus myosuroides), canary grass (Phalaris minor), chickweed (Stellaria media), downy brome (Bromus tectorum), green foxtail (Setaria viridis), Italian ryegrass (Lolium multiflorum), wheat (Triticum aestivum), wild oat (Avena fatua) and windgrass (Apera spica-venti) were treated with postemergence applications of some of the test chemicals formulated in the same manner. Plants ranged in height from 2 to 18 cm (1- to 4-leaf stage) for postemergence treatments. Plant species in the flooded paddy test consisted of rice (Oryza saliva), smallflower flatsedge (Cyperus difformis), duck salad (Heteranthera limosa) and barnyardgrass (Echinochloa crus-galli) grown to the 2-leaf stage for testing. Treated plants and controls were maintained in a greenhouse for 12 to 14 days, after which time all species were compared to controls and visually evaluated. Plant response ratings, summarized in Table C, are based on a scale of 0 to 100 where 0 is no effect and 100 is complete control. A dash (-) response means no test result.

corn (Zea mays) = assay: Test C postemergence
Excerpt: as §1, §2

[2] = test system: crabgrass (Digitaria sanguinalis); assay: Test C postemergence
Excerpt: as §1, §2

[3] = test system: barnyardgrass (Echinochloa crus-galli); assay: Test C flooded paddy test; settings: for Barnyardgrass plant response rating: Flooded Paddy, scale 0 to 100, 0 no effect, 100 complete control; for Plant response rating, Barnyardgrass: flooded paddy test, scale 0 to 100 (0 no effect, 100 complete control)
Method in brief: (§3)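 Flooded paddy, 2-leaf stage at treatment. Readout: visual % control vs untreated, 0–100, at 12–14 d in greenhouse.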

[4] = test system: duck salad (Heteranthera limosa); assay: Test C flooded paddy test; settings: for Ducksalad plant response rating: Flooded Paddy, scale 0 to 100, 0 no effect, 100 complete control; for Plant response rating, Ducksalad: flooded paddy test, scale 0 to 100 (0 no effect, 100 complete control)
Method in brief: as §3

rice (Oryza saliva) = assay: Test C flooded paddy test; settings: for Rice plant response rating: Flooded Paddy, scale 0 to 100, 0 no effect, 100 complete control; for Plant response rating, Rice: flooded paddy test, scale 0 to 100 (0 no effect, 100 complete control)
Method in brief: as §3

[5] = test system: smallflower flatsedge (Cyperus difformis); assay: Test C flooded paddy test; settings: for Flatsedge plant response rating: Flooded Paddy, scale 0 to 100, 0 no effect, 100 complete control; for Plant response rating, Flatsedge: flooded paddy test, scale 0 to 100 (0 no effect, 100 complete control)
Method in brief: as §3

Sunflower [6] = assay: Test C preemergence; settings: scale 0 to 100, 0 no effect, 100 complete control
Sunflower [7] = assay: Test C preemergence; settings: scale 0 to 100
[8] = Rate 250 g/ha, scale 0 to 100 (0 no effect, 100 complete control)
[9] = Rate 125 g/ha, scale 0 to 100, 0 no effect, 100 complete control

Row | Compound | Plant response rating, Cocklebur ([1]; Rate 31 g/ha, scale 0 to 100) | Plant response rating, Cocklebur ([1]; Rate 62 g/ha, scale 0 to 100) | Barnyardgrass plant response rating ([3]; Rate 250 g/ha) | Barnyardgrass plant response rating ([3]; Rate 500 g/ha) | Plant response rating, Barnyardgrass ([3]; Rate 62 g/ha) | Plant response rating, Barnyardgrass ([3]; Rate 125 g/ha) | Ducksalad plant response rating ([4]; Rate 250 g/ha) | Ducksalad plant response rating ([4]; Rate 500 g/ha) | Plant response rating, Ducksalad ([4]; Rate 62 g/ha) | Plant response rating, Ducksalad ([4]; Rate 125 g/ha) | Rice plant response rating (rice (Oryza saliva); Rate 250 g/ha) | Rice plant response rating (rice (Oryza saliva); Rate 500 g/ha) | Plant response rating, Rice (rice (Oryza saliva); Rate 62 g/ha) | Plant response rating, Rice (rice (Oryza saliva); Rate 125 g/ha) | Flatsedge plant response rating ([5]; Rate 250 g/ha) | Flatsedge plant response rating ([5]; Rate 500 g/ha) | Plant response rating, Flatsedge ([5]; Rate 62 g/ha) | Plant response rating, Flatsedge ([5]; Rate 125 g/ha) | Plant response rating, Sunflower (Sunflower [6]; Rate 250 g/ha) | Plant response rating, Sunflower (Sunflower [7]; Rate 31 g/ha) | also measured
1 | Cc1ccc(N2CCC(n3ccc(C(C)(C)C)n3)C2=O)cc1OCCCl (centres unmarked) [Compound 109] | 0 | 40 | 70 | 90 | 0 | 0 | 70 | 90 | 0 | 0 | 0 | 20 | 0 | 0 | 80 | 100 | 40 | 50 | 90 | 40 | Plant response rating, Corn (corn (Zea mays); Rate 31 g/ha, scale 0 to 100): 0; Plant response rating, Corn (corn (Zea mays); Rate 62 g/ha, scale 0 to 100): 0; Plant response rating, Corn (corn (Zea mays); scale 0 to 100): 40; Plant response rating, Crabgrass ([2]; Rate 31 g/ha, scale 0 to 100): 0; Plant response rating, Crabgrass ([2]; Rate 62 g/ha, scale 0 to 100): 0; Plant response rating, Crabgrass [2, 8]: 0; Plant response rating, Sunflower (Sunflower [7]; Rate 62 g/ha): 70
2 | CCOc1cc(N2CCC(n3ccc(C(C)(C)C)n3)C2=O)ccc1C (centres unmarked) [Compound 106] | 30 | 30 | 90 | 100 | 30 | 50 | 100 | 100 | 0 | 0 | 60 | 90 | 20 | 60 | 100 | 100 | 80 | 90 | 90 | 70 | Plant response rating, Cocklebur [1, 9]: 80; Plant response rating, Cocklebur [1, 8]: 90; Plant response rating, Corn (corn (Zea mays); Rate 31 g/ha, scale 0 to 100): 0; Plant response rating, Corn (corn (Zea mays); Rate 62 g/ha, scale 0 to 100): 0; Plant response rating, Corn (corn (Zea mays); [9]): 0; Plant response rating, Corn (corn (Zea mays); [8]): 20; Plant response rating, Crabgrass ([2]; Rate 31 g/ha, scale 0 to 100): 0; Plant response rating, Crabgrass ([2]; Rate 62 g/ha, scale 0 to 100): 0; Plant response rating, Crabgrass [2, 9]: 0; Plant response rating, Crabgrass [2, 8]: 0; Plant response rating, Sunflower (Sunflower [7]; Rate 62 g/ha): 70
3 | COC(=O)c1cccc(N2CCC(n3ccc(C(C)(C)C)n3)C2=O)c1 (centres unmarked) [Compound 73] |  |  | 100 | 100 | 30 | 70 | 100 | 100 | 70 | 90 | 50 | 60 | 0 | 20 | 100 | 100 | 90 | 100 | 70 | 40 | 
4 | CCC(CC)c1ccn(C2CCN(c3ccc(C)c(OC)c3)C2=O)n1 (centres unmarked) [Compound 81] | 0 | 0 | 90 | 90 | 20 | 80 | 90 | 100 | 80 | 90 | 80 | 80 | 0 | 0 | 90 | 90 | 90 | 90 | 0 | 0 | Plant response rating, Cocklebur [1, 9]: 20; Plant response rating, Cocklebur [1, 8]: 50; Plant response rating, Corn (corn (Zea mays); Rate 31 g/ha, scale 0 to 100): 0; Plant response rating, Corn (corn (Zea mays); Rate 62 g/ha, scale 0 to 100): 0; Plant response rating, Corn (corn (Zea mays); [9]): 0; Plant response rating, Corn (corn (Zea mays); [8]): 0; Plant response rating, Crabgrass ([2]; Rate 31 g/ha, scale 0 to 100): 0; Plant response rating, Crabgrass ([2]; Rate 62 g/ha, scale 0 to 100): 0; Plant response rating, Crabgrass [2, 9]: 0; Plant response rating, Crabgrass [2, 8]: 0
5 | CC(C)(C)c1ccn(C2CCN(c3cccc(Cl)c3)C2=O)n1 (centres unmarked) [Compound 43] |  |  | 100 | 100 | 30 | 80 | 30 | 80 | 0 | 20 | 0 | 30 | 0 | 0 | 100 | 100 | 90 | 100 |  | 0 | Plant response rating, Sunflower (Sunflower [6]; Rate 125 g/ha): 0; Plant response rating, Sunflower (Sunflower [7]; Rate 16 g/ha): 0
6 | CCCC(C)c1ccn(C2SCN(c3cccc(OC(F)(F)F)c3)C2=O)n1 (centres unmarked) [Compound 90] |  |  | 90 | 100 | 30 | 60 | 90 | 90 | 80 |  | 0 | 20 | 0 | 0 | 100 | 100 | 100 | 100 | 10 | 0 | Plant response rating, Sunflower (Sunflower [7]; Rate 62 g/ha): 0

Source: patent publication US7138361B2, “Herbicidal heterocycles” (E. I. du Pont de Nemours and Company, priority 2000, dated 2006)
